We go through six compounds from patent US7960373B2, “2-alkoxy-3,4,5-trihydroxyalkylamide-benzothiazepines preparation thereof, compositions containing them and use thereof” (Sanofi-Aventis, priority 2006, dated 2011).

One data set has as its system HCT116 cells. Description: inhibition of cell proliferation of HCT116 cells (14C-thymidine incorporation). The note with it: Homo sapiens, HCT-116, HCT116, 96 hours. The format is cell-based. The procedure: The antiproliferative activity of the products of the examples of Table 1 was determined by measuring the inhibition of cell proliferation of HCT116 cells. The cells are inoculated in a cell culture medium at a concentration of 10 000 cells per well, in 0.17 mL of medium, and 20 μL of test product, at various concentrations, and 10 μL of thymidine [methyl-14C] (100 μCi/ml—specific activity 47.90 mCi/mmol; NEN Technologies reference NEC568 batch 3550-001) are added, and the cells are then incubated at 37° C. and 5% CO2.
Medium used for the HCT116 cell culturing: DMEM medium 2 mM L-glutamine, 200 IU/ml penicillin, 200 μg/mL streptomycin and 10% (V/V) foetal calf serum (Life Technologies).
After 96 hours, the incorporation of ^14C-thymidine is counted in a 1450 Microbeta Wallac Trilux liquid scintillation counter. The results R are expressed in cpm (counts per minute) and converted to a percentage of growth inhibition GI % by first subtracting the average number of cpm for the wells without B cells and then dividing the number of cpm for the wells of the untreated cells C comprising 20 μL of product dilution medium containing 1% ethanol. (GI %=(R−B)×100/C %).
The IC50 values are calculated by means of equation 205 of the XLFit software (IDBS company, UK) via non-linear regression analysis using the Marquardt algorithm (Donald W. Marquardt, J. Soc. Industry. Appl., vol. 11, No. 2, June, 1963).
Background: Incorporation of labelled thymidine or its analogues reports DNA synthesis.

The nature of data set [1]: Caco2-TC7 permeability (Papp single point). The data set is classed as in vitro ADME. The note with it: human, Caco-2. (Passage across Caco-2 layers is used to estimate intestinal permeability.)
The nature of data set [2]: total metabolic stability (% metabolization). The data set is classed as in vitro ADME. The note with it: in mice. An excerpt:
This compound has better total metabolic stability (11% metabolization in mice) than the product of Example 20 (99%) described in patent application WO 2006/056 696.

What is called IC50 is the concentration that gives 50% inhibition. As for `CO[C@@H](C(=O)N[C@H]1C[S@@+]([O-])c2ccccc2N(Cc2cc(F)cc(F)c2)C1=O)[C@H](O)[C@@H](O)[C@H](O)/C=C/C(C)(C)C` [Example 1], inhibition in the data set with HCT116 cells was half-maximal at 9 nM (IC50).
`CO[C@@H](C(=O)N[C@H]1C[S@+]([O-])c2ccccc2N(Cc2cc(F)cc(F)c2)C1=O)[C@H](O)[C@@H](O)[C@H](O)/C=C/C(C)(C)C` [Example 2]: the IC50 with HCT116 cells is 20 nM.
As for `CO[C@@H](C(=O)N[C@H]1CSc2ccccc2N(Cc2ccccc2)C1=O)[C@H](O)[C@@H](O)[C@H](O)/C=C/C(C)(C)C` [Example 3, N-[(3R)-5-benzyl-4-oxo-2,3,4,5-tetrahydro-1,5-benzothiazepin-3-yl]-(6E)-(2R,3R,4S,5R)-3,4,5-trihydroxy-2-methoxy-8,8-dimethyl non-6-enamide], half-maximal inhibition in the data set with HCT116 cells (IC50) was put at 10 nM.
As to `CO[C@@H](C(=O)N[C@H]1CSc2ccccc2N(C)C1=O)[C@H](O)[C@@H](O)[C@H](O)/C=C/C(C)(C)C` [Example 4, N-[(3R)-5-methyl-4-oxo-2,3,4,5-tetrahydro-1,5-benzothiazepin-3-yl]-(6E)-(2R,3R,4S,5R)-3,4,5-trihydroxy-2-methoxy-8,8-dimethylnon-6-enamide], half-maximal inhibition in the data set on HCT116 cells (IC50) required 19 nM.
The Papp is a coefficient for how fast a substance crosses the barrier. On to `CO[C@@H](C(=O)N[C@H]1CSc2c(Cl)cc(C(F)(F)F)cc2NC1=O)[C@H](O)[C@@H](O)[C@H](O)/C=C/C(C)(C)C` [Example 5, N-((3R)-9-chloro-4-oxo-7-trifluoromethyl-2,3,4,5-tetrahydro-1,5-benzothiazepin-3-yl)-(6E)-(2R,3R,4S,5R)-3,4,5-trihydroxy-2-methoxy-8,8-dimethylnon-6-enamide], for which the Papp in data set [1] amounted to 2.3 ×10⁻⁶ cm/s. In addition, in data set [2], the “total metabolic stability, % metabolization” value came out at 11%. The midpoint of inhibition in the data set on HCT116 cells, the IC50, lay at 14 nM.
Turning to `CO[C@@H](C(=O)N[C@H]1CSc2ccccc2N(C)C1=O)[C@H](O)[C@@H](O)[C@H](O)/C=C/C1CCCC1` [Example 9, (2R,3R,4S,5R,6E)-7-cyclopentyl-3,4,5-trihydroxy-2-methoxy-N-[(3R)-5-methyl-4-oxo-2,3,4,5-tetrahydro-1,5-benzothiazepin-3-yl]hept-6-enamide], in the data set with HCT116 cells, the IC50 turned out to be 7 nM.
